Measured values reported in PMC8533149 (Biomolecules, 2021).

system: HIV-1 LTR-III G-quadruplex (FAM/TAMRA-labeled LTR-III); assay: FRET melting assay, LTR-III G4; type: binding; settings: Table S1 primary screening, ligand:ODN 50:1, singlicate
Outline: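 Melting is followed by FAM fluorescence (ex 495/em 520 nm) while heating at 1 °C/min from 30 to 95 °C. Labelled ODN at 0.5 μM, pre-annealed in 10 mM Li cacodylate, 100 mM KCl, pH 7.4, mixed with ligand at 50:1 (25 μM), or 20:1 and 2:1 for titration. ΔTm is relative to the 0.25% DMSO buffer control.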

Compound | LTR-III ΔTm
CCOC(=O)CN1C(=O)C(=Cc2ccc(Br)cc2)N=C1c1ccccc1 [X 6] | -0.1 °C
CCOC(=O)CN1C(=O)C(=Cc2ccc(O)c(F)c2)N=C1C [M 2286.1] | -0.3 °C
CC(C)OC(=O)c1noc(C(=O)NC2CCCCC2)c1-c1ccccc1F [SA 331D] | -0.7 °C
CNC(=O)C(=Cc1ccc(C#N)cc1)N=[N+]=[N-] [N 830A] | -0.1 °C
CN1C(=O)C(=Cc2ccc(OCC(NC(=O)OC(C)(C)C)C(=O)O)cc2)N=C1c1ccccc1 (stereo not drawn) [GR 161] | -0.2 °C
O=C1NC(c2ccccc2)=NC1=Cc1ccc(O)cc1 [X 24] | -0.5 °C
COc1cc(O)ccc1C=C1N=C(C=Cc2cc(Cl)nc(Cl)c2)N(C)C1=O [N 960b] | 0.7 °C
CCC(=O)NC(=Cc1c[nH]c2ccccc12)C(=O)NC [SV 13] | -0.1 °C
CCN(CC)c1ccc(C=C2N=C(C)N(C)C2=O)cc1 [GC 04] | 0 °C
CC(C)OC(=O)c1noc(=O)c(O)c1-c1ccc(N(C)C)cc1 [SA 305C] | -0.6 °C
CCN(CC)C(=S)Oc1ccc(C=C2N=C(C)N(C)C2=O)cc1 [M 2081] | 0.1 °C
COc1c(O)ccc(C=C2N=C(C)N(C)C2=O)c1OC [N 1027.1] | -0.1 °C
COc1cc(O)ccc1/C=C1N=C(/C=C/c2ccncc2)N(C)C\1=O [N 871B] | 0.4 °C
CC1=NC(=Cc2ccc(O)cc2Br)C(=O)N1C [ZS 174] | -0.3 °C
CC1=NC(=Cc2ccc(O)c(F)c2)C(=O)N1CC(N)=O [SA 99] | 0.1 °C
COc1ccc(C=CC2=NC(=Cc3ccncc3)C(=O)N2C)cc1 [N 813] | 0.6 °C
CCCC1=NC(=C(N)c2ccccc2)C(=O)N1 [M 1862] | -1.1 °C
COc1cc(O)ccc1C=C1N=C(C(F)(F)F)N(C)C1=O [M 2738c] | 0.4 °C
CCN(CC)c1ccc2cc(C=C3N=C(C)N(C)C3=O)ccc2c1 [N 601.23] | -0.7 °C
CC(C)OC(=O)c1noc(C(=O)NCc2ccccc2)c1-c1ccc(N(C)C)cc1 [SA 332E1] | -0.6 °C
CC1=NC(=Cc2ccc(N(C)C)cc2)C(=O)N1CCNC(=O)OC(C)(C)C [M 2022a] | -0.2 °C
COc1cc(O)ccc1C=C1N=C(C)N(C)C1=O [N 865] | 0.8 °C
CC1=NC(=Cc2ccccc2)C(=O)N1CCNC(=O)OC(C)(C)C [M 2022d] | -0.3 °C
CC1=NC(=Cc2ccc(F)cc2)C(=O)N1C [SV 50.10] | -0.2 °C

Compound | LTR-III ΔTm
COc1ccc(C=C2C(=O)N(C)C(C)=[N+]2C)cc1.O=S(=O)([O-])C(F)(F)F [M 2060] | -0.2 °C
CC(C)OC(=O)c1noc(C(=O)NC2CCCCC2)c1-c1ccccc1 [SA 325E] | -0.6 °C
COc1cc(O)cc(OC)c1C=C1N=C(C=Cc2c(F)c(F)nc(F)c2F)N(C)C1=O [N 971] | 0.1 °C
CC(C)C1=NC(=Cc2ccc(O)cc2)C(=O)N1C [GA 06] | -0.7 °C
CN1C(=O)C(=Cc2ccc(O)cc2)N=C1C=Cc1cccc(C(F)(F)F)c1 [N 873] | 0.4 °C
CC1=NC(=Cc2cc(F)c(O)c(F)c2)C(=O)N1CCCC(=O)O [M 894] | -0.3 °C
CC1=NC(=Cc2ccc(C)o2)C(=O)N1C [N 1020] | -0.2 °C
COc1ccc(C=C2N=C(C=C(SC)c3ccccc3)N(C)C2=O)cc1 [SA 474.1] | 0 °C
CCC1=NC(=Cc2ccc(OC)cc2)C(=O)N1C [M 497a2] | -0.4 °C
CC1=NC(=Cc2cccs2)C(=O)N1C [N 1021] | 0.3 °C
COc1cc(O)ccc1/C=C1\N=C(C(=O)c2ccccc2)N(C)C1=O [N 1139] | 0.6 °C
CC(C)OC(=O)c1noc(C(=O)NC2CCCCC2)c1-c1cccs1 [AL 25] | -0.1 °C
COc1ccc(C=C2N=C(Nc3ccc(OC)cc3)N(C)C2=O)cc1 [SA 168] | -0.4 °C
CCN(CC)c1ccc(C=C2N=C(C)N(C)C2=O)c(B(F)F)c1 [M 739] | -0.4 °C
CC(C)OC(=O)c1noc(C(=O)NCc2ccccc2)c1-c1ccc(O)cc1 [SA 345B] | -0.8 °C
CC1=NC(=Cc2ccc([N+](=O)[O-])cc2)C(=O)N1C1CCCCC1 [ZS 146] | 0.2 °C
CC(=O)C1=NC(=Cc2ccc(O)cc2)C(=O)N1C [X 18] | 0.6 °C
O=C1NC(=S)SC1=Cc1ccc(O)cc1Br [SAI 122] | 0.1 °C
CC1=NC(=Cc2ccco2)C(=O)N1C [M 1583.2] | -0.5 °C
O=C1NC(=S)SC1=Cc1cc(F)c(O)c(F)c1 [SAI 118] | 0 °C
CC1=NC(=Cc2ccnc3ccccc23)C(=O)N1C [SA 471] | -0.1 °C
NC(=C1N=C2C=CC=CN2C1=O)c1ccc(Cl)cc1 [ZS 228] | 0.3 °C
COc1cc(O)ccc1C=C1N=C(Cc2ccccc2)N(C)C1=O [N 1135] | 0 °C
CC1=NC(=Cc2ccc(O)c([N+](=O)[O-])c2)C(=O)N1C [M 2482] | -1.2 °C

Compound | LTR-III ΔTm
CC(C)(C)[Si](Oc1ccc(C=CC=O)cc1)(c1ccccc1)c1ccccc1 [M 1373.2] | -0.5 °C
CCOC(=O)CN1C(=O)C(=Cc2ccccc2)N=C1C [SA 148] | -1.3 °C
CC1=NC(=Cc2ccc3cc(N(C)C)ccc3c2)C(=O)N1C [X 001] | -0.5 °C
COc1cc(/C=C/c2ccc(O)cc2OC)oc(=O)c1 [SAI 32] | 0.4 °C
COc1ccc(C=CC2=NC(=Cc3ccnc4ccccc34)C(=O)N2C)cc1 [AL 125] | 1.7 °C
CC(=O)Oc1ccc(C=C2N=C(C)N(C)C2=O)cc1 [M 2370] | 0 °C
COc1ccc2cc(CO)ccc2c1 [N 49] | -0.1 °C
CC(=O)NC(=Cc1ccc(O)cc1)C(=O)NO [SV 7] | 0 °C
CC(=O)C1=NC(=Cc2c[nH]c3cccc(C)c23)C(=O)N1C [M 1981] | 1.7 °C
COc1ccc(C=C2N=C(C)N(C3CCCCC3)C2=O)cc1 [ZS 129] | -0.2 °C
COc1cc(O)ccc1/C=C1N=C(/C=C/c2cccs2)N(C)C\1=O [N 1039] | 1.1 °C
CC1=NC(=Cc2cccc([N+](=O)[O-])c2)C(=O)N1CC(N)=O [SA 128] | 0.1 °C
CC(=O)NCCN1C(=O)C(=Cc2ccc(O)cc2)N=C1C=Cc1ccc(O)cc1 [ccE 2] | -0.1 °C
CCN(CC)c1ccc(C=C2NC(=S)NC2=O)cc1 [AL 172] | -0.2 °C
CC1=NC(=Cc2ccc(O)cc2)C(=O)N(O)C1=O [M 800] | -0.2 °C
COc1ccc(CN(C(C)=O)C(C)C2=NC(=Cc3ccc(O)cc3)C(=O)N2C)cc1 (stereo not drawn) [X 23] | 0.5 °C
CC(C)OC(=O)c1noc(C(=O)N2CCCC2)c1-c1ccccc1 [SA 307A] | -0.3 °C
COc1cc(/C=C2\N=C(C)N(C)C2=O)c(OC)cc1O [N 1036] | 0.5 °C
COC(=O)c1ccc(C=C2N=C(C)N(C)C2=O)cc1 [SA 400] | 0 °C
CC1=NC(=Cc2cc3c4c(c2)CCCN4CCC3)C(=O)N1CCCC(=O)O [N 152] | 0.3 °C
COc1ccc(-c2c(C(=O)OC(C)C)noc2C(=O)NC2CCCCC2)cc1 [SA 341B] | -0.2 °C
C=CCc1cc(C=C2N=C(C)N(C)C2=O)ccc1O [X 11] | -0.2 °C
CNC(=O)C(=Cc1ccncc1)N=P(c1ccccc1)(c1ccccc1)c1ccccc1 [N 833] | -0.6 °C
CC=CC=CC1=NC(=Cc2ccc(O)cc2)C(=O)N1C [ccA 8] | 0.2 °C

Compound | LTR-III ΔTm
CCC1=NC(=Cc2ccc(O)cc2)C(=O)N1C [GA 04] | -0.1 °C
CCCC1=NC(=Cc2ccc(O[Si](c3ccccc3)(c3ccccc3)C(C)(C)C)cc2)C(=O)N1C [M 1550] | -0.1 °C
C[C@H](CS)C(=O)N1CCC[C@H]1C(=O)O [SA 333] | -0.4 °C
COc1cc(C=C2N=C(C(F)(F)F)N(C)C2=O)c(OC)cc1O [M 2738d] | 1.4 °C
COc1ccc2cc(OC)c(C=C3N=C(C)N(C)C3=O)cc2c1 [SA 410] | -0.2 °C
COc1cc(O)ccc1C=C1N=C(C=Cc2ccc(N(C)C)cc2)N(C)C1=O [MID 147] | 0.4 °C
COC(=O)c1ccc(C(N)=C2N=C(C)N(C)C2=O)cc1 [ZS 199] | -0.4 °C
CC(C)OC(=O)c1noc(C(=O)NCc2ccccc2)c1-c1ccc(C(C)C)cc1 [SA 342B] | -0.5 °C
CC1=NC(=Cc2ccc(O)c(C(=O)O)c2)C(=O)N1C [SV 51.1] | -0.4 °C
COc1ccc(C=C2N=C3C(=O)NCCN3C2=O)cc1 [JL 06.1] | 0.1 °C
CCN(CC)c1ccc(C=C2N=C(C)N(CCCC(=O)O)C2=O)cc1 [GC 03] | 0.4 °C
COc1cc(C=C2SC(=S)NC2=O)cc(OC)c1O [DOM] | -0.6 °C
CC(=O)Oc1ccc(C=C2N=C(C)N(CCNC(=O)OC(C)(C)C)C2=O)cc1 [M 678] | -0.4 °C
COc1ccc(C=C2N=C(C=C(O)c3ccc(F)cc3)N(C)C2=O)cc1 [SV 30] | -0.4 °C
COc1cc(O)ccc1/C=C1N=C(/C=C(\C#N)c2cccs2)N(C)C\1=O [MID 153] | 2 °C
CC1=NC(=Cc2ccncc2)C(=O)N1CCNC(=O)OC(C)(C)C [M 2250.2] | -0.1 °C
CC1=NC(=Cc2ccc([N+](=O)[O-])cc2)C(=O)N1Cc1ccccc1 [ZS 143] | -0.9 °C
CC1=NC(=Cc2ccc(O)c(F)c2)C(=O)N1C [M 556] | -0.2 °C
CC1=NC(=Cc2ccncc2)C(=O)N1CC(=O)O [ZS 69] | -0.4 °C
CC1=NC(=Cc2ccc(N3CCCCCC3)cc2)C(=O)N1C [N 708.2] | 0.2 °C
CC1=NC(=Cc2ccc(N)c(O)c2)C(=O)N1C [X 5] | 0.9 °C
